Laboratory results taken from ChEMBL document CHEMBL4476863, “Heterocyclic compounds for the inhibition of pask” (2012).

Target: PAS domain-containing serine/threonine-protein kinase (Homo sapiens, UniProt Q96RG2)
Assay: Inhibition of purified human PASK kinase domain expressed in insect cells incubated for 10 mins using MBP protein by kinase-Glo luminescent kinase assay

PAS domain-containing serine/threonine-protein kinase, sequence (Q96RG2 whole entry, the tested form may be a part): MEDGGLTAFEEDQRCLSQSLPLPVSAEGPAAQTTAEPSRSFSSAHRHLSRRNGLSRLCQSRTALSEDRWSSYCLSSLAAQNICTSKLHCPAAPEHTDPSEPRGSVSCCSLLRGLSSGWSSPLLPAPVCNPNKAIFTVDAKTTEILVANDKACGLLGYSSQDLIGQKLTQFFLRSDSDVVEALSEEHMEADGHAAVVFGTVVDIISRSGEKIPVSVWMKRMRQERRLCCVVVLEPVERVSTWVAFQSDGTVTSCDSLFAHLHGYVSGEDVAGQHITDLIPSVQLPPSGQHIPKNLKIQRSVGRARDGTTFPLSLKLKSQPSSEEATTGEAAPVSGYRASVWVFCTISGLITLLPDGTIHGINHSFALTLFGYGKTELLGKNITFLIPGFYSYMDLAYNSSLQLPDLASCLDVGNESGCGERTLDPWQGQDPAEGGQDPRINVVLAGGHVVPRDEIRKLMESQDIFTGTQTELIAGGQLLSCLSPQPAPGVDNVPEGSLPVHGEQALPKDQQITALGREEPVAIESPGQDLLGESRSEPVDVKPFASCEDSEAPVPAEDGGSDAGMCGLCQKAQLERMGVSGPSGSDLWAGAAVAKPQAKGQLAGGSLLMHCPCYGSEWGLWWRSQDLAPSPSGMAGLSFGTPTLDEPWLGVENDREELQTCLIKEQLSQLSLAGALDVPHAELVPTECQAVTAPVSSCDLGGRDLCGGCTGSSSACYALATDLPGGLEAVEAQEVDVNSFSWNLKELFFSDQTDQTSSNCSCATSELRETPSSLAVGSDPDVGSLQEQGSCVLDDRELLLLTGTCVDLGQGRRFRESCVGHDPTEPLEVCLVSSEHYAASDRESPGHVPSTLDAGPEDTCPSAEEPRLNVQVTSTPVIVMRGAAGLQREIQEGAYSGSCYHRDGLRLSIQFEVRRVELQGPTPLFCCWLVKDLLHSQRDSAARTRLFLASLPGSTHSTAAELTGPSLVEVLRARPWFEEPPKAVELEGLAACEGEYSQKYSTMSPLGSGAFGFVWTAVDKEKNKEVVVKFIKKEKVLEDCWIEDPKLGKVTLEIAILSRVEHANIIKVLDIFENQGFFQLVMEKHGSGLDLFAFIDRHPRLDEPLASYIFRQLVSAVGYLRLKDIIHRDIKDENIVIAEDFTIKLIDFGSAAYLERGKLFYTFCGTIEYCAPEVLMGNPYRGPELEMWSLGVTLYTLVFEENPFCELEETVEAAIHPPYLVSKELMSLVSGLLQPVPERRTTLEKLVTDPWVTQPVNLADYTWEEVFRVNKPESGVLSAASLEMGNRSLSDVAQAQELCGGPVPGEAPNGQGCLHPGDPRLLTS

Question: How did the IC50 turn out when `O=c1cc(-c2ccc3c(c2)OCO3)[nH]c2c(-c3ccccn3)cnn12` was run?
Answer: Its IC50 is ≤ 10 µM.
